From patent US20230405028A1 (priority 2020, published 2023)
Like-named read-outs stand apart in the source and are kept apart here.

Assays:
[1] = tested on: iNOS; experiment: iNOS in HSIEC cells treated with TNF-α/IFN-γ; assay type: cell-based, human; conditions: 5, 10, 20, 40 μM
[2] = tested on: COX-2; experiment: COX-2 in HSIEC cells treated with TNF-α/IFN-γ (western blot, densitometry); assay type: cell-based, human; conditions: single agent, escalating doses
Description: Cell Culture: Human primary small intestinal epithelial cells (HSIEC), purchased from Cell Biologics were cultured in Epithelial Cell Medium/w Kit. HSIEC cells were incubated at 37° C. in a humidified atmosphere of 5% CO2. HSIEC cells were treated with mycoplasma removal reagent BM-Cyclin (Roche) to ensure mycoplasma negative before treatment.
To do so, COX-2, an enzyme which mediates the bioconversion of arachidonic acid to inflammatory prostaglandins (PGs), was measured via densitometry. GAPDH was used as a reference housekeeping marker for relative densitometry measures. […] Ethanol or DMSO was used, as indicated in the figures, as a vehicle for dilution and as a negative control showing the amount of the inflammatory marker present when inflammation was not induced.
Increasing doses of each molecule of interest, or each combination of molecules of interest, were then distributed to the HSIEC cells treated to induce inflammatory response. Inflammatory markers COX-2 and/or IL-6 were assessed at specific timepoints after induction of inflammation for protein content marker measured via western blot. GAPDH was used as a reference housekeeping marker for relative densitometry measures of protein content.

[3] = tested on: Human primary small intestinal epithelial cells (HSIEC)
[4] = biological target: 5HT2A (Homo sapiens, UniProt P28223); conditions: printed with a question mark in the Average Dose column; cited from earlier work
[5] = tested on: A-172 glioblastoma cells; experiment: MTT cell viability assay in A-172 cells; conditions: Psilocybin + Eugenol section, 25 μM EUG
[6] = tested on: TRPA1; conditions: TRPA1 overexpressing CHO cells and trigeminal neurons; cited from earlier work
[7] = tested on: anandamide levels; conditions: chronic, but not acute, administration of 150 mg/kg (Smalheiser, 2019); cited from earlier work

Chain of 5HT2A (P28223 whole entry): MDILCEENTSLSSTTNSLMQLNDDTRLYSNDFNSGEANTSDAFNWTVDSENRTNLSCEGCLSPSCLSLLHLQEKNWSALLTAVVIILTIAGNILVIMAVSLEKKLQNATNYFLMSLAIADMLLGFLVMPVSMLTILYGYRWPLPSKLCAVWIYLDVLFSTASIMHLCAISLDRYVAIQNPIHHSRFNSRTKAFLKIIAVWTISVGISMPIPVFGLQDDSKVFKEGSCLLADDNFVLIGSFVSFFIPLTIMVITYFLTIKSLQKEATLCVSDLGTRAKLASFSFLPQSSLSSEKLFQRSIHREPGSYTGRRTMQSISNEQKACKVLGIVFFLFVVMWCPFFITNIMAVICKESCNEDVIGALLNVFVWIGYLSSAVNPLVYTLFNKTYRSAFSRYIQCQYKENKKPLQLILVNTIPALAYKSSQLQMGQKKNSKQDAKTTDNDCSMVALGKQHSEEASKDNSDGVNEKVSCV

CC(=O)Oc1cccc2[nH]cc(CCN(C)C)c12 [4-ACO-DMT, 3-[2-(dimethylamino)ethyl]-4-acetoxyindole]
dose reducing iNOS to the greatest extent [1]: 10 µM
doses resulting in reduction of iNOS [1]: all doses
doses reducing COX-2 to the greatest extent [2]: 40 µM
effect on cell growth / cellular metabolic activity (MTT, words) [3]: increase growth of cells

CCN(C(=O)[C@@H]1C=C2c3cccc4[nH]cc(c34)C[C@H]2N(C)C1)C1CC1 [ECPLA, D-N-ethyl-N-cyclopropyllysergamide]
potency of LSD [4]: 40% potency % potency of LSD

C=CCc1ccc(O)c(OC)c1 [EUG]
Cellular Metabolic Activity ([5]; 24 h): 0.202
Cellular Metabolic Activity ([5]; 48 h): 0.297
Cellular Metabolic Activity ([5]; 72 h): 0.473
Cellular Metabolic Activity ([5]; 96 h): 0.319
Cellular Metabolic Activity ([5]; time 0): 0.134

CCC(CC)NC(=O)[C@@H]1C=C2c3cccc4[nH]cc(c34)C[C@H]2N(C)C1 [LSP, D-lysergic acid 3-pentyl amide]
potency of LSD [4]: 75% potency % potency of LSD

CCCCCc1cc(O)c2c(c1)OC(C)(C)[C@@H]1CCC(C)=C[C@@H]21 [THC, delta-9-tetrahydrocannabinol]
TRPA1 activation [6]: activate TRPA1

CCCCCc1cc(O)c2c(c1)OC(C)(C)c1ccc(C)cc1-2 [cannabinol]
TRPA1 activation [6]: activate TRPA1

COc1cc(CNC(=O)CCCC/C=C/C(C)C)ccc1O [capsaicin]
effect on cell growth / cellular metabolic activity (MTT, words) [3]: All initial doses of capsaicin were found to be inhibitory
Cellular Metabolic Activity ([3]; 0.5 μM, 24 h): 0.088
Cellular Metabolic Activity ([3]; 0.5 μM, 48 h): 0.154
Cellular Metabolic Activity ([3]; 0.5 μM, 72 h): 0.288
Cellular Metabolic Activity ([3]; 0.5 μM, 96 h): 0.469
Cellular Metabolic Activity ([3]; 0.5 μM, time 0): 0.068
Cellular Metabolic Activity ([3]; 1 μM, 24 h): 0.084
Cellular Metabolic Activity ([3]; 1 μM, 48 h): 0.150
Cellular Metabolic Activity ([3]; 1 μM, 72 h): 0.326
Cellular Metabolic Activity ([3]; 1 μM, 96 h): 0.502
Cellular Metabolic Activity ([3]; 1 μM, time 0): 0.066
Cellular Metabolic Activity ([3]; 5 μM, 24 h): 0.080
Cellular Metabolic Activity ([3]; 5 μM, 48 h): 0.148
Cellular Metabolic Activity ([3]; 5 μM, 72 h): 0.296
Cellular Metabolic Activity ([3]; 5 μM, 96 h): 0.477
Cellular Metabolic Activity ([3]; 5 μM, time 0): 0.068
Cellular Metabolic Activity ([3]; 10 μM, 24 h): 0.075
Cellular Metabolic Activity ([3]; 10 μM, 48 h): 0.174
Cellular Metabolic Activity ([3]; 10 μM, 72 h): 0.331
Cellular Metabolic Activity ([3]; 10 μM, 96 h): 0.708
Cellular Metabolic Activity ([3]; 10 μM, time 0): 0.040
Cellular Metabolic Activity ([3]; 50 μM, 24 h): 0.062
Cellular Metabolic Activity ([3]; 50 μM, 48 h): 0.155
Cellular Metabolic Activity ([3]; 50 μM, 72 h): 0.292
Cellular Metabolic Activity ([3]; 50 μM, 96 h): 0.681
Cellular Metabolic Activity ([3]; 50 μM, time 0): 0.036
Cellular Metabolic Activity ([3]; 100 μM, 24 h): 0.063
Cellular Metabolic Activity ([3]; 100 μM, 48 h): 0.150
Cellular Metabolic Activity ([3]; 100 μM, 72 h): 0.272
Cellular Metabolic Activity ([3]; 100 μM, 96 h): 0.623
Cellular Metabolic Activity ([3]; 100 μM, time 0): 0.036
Cellular Metabolic Activity ([3]; 200 μM, 24 h): 0.044
Cellular Metabolic Activity ([3]; 200 μM, 48 h): 0.082
Cellular Metabolic Activity ([3]; 200 μM, 72 h): 0.144
Cellular Metabolic Activity ([3]; 200 μM, 96 h): 0.231
Cellular Metabolic Activity ([3]; 200 μM, time 0): 0.040
Cellular Metabolic Activity ([3]; 400 μM, 24 h): 0.016
Cellular Metabolic Activity ([3]; 400 μM, 48 h): 0.031
Cellular Metabolic Activity ([3]; 400 μM, 72 h): 0.016
Cellular Metabolic Activity ([3]; 400 μM, 96 h): 0.018
Cellular Metabolic Activity ([3]; 400 μM, time 0): 0.039
Cellular Metabolic Activity ([3]; 800 μM, 24 h): 0
Cellular Metabolic Activity ([3]; 800 μM, 48 h): 0
Cellular Metabolic Activity ([3]; 800 μM, 72 h): 0
Cellular Metabolic Activity ([3]; 800 μM, 96 h): 0
Cellular Metabolic Activity ([3]; 800 μM, time 0): 0.041
doses showing no effect (MTT) ([3]; human): < 10 µM

COc1cc(/C=C/C(=O)CC(=O)/C=C/c2ccc(O)c(OC)c2)ccc1O [curcumin, (1E,6E)-1,7-bis(4-hydroxy-3-methoxyphenyl) hepta-1,6-diene-3,5-dione]
anandamide levels in a variety of brain regions [7]: significantly raised
Cellular Metabolic Activity ([3]; 1 μM, 24 h): 0.086
Cellular Metabolic Activity ([3]; 1 μM, 48 h): 0.184
Cellular Metabolic Activity ([3]; 1 μM, 72 h): 0.375
Cellular Metabolic Activity ([3]; 1 μM, 96 h): 0.611
Cellular Metabolic Activity ([3]; 1 μM, time 0): 0.040
Cellular Metabolic Activity ([3]; 5 μM, 24 h): 0.079
Cellular Metabolic Activity ([3]; 5 μM, 48 h): 0.148
Cellular Metabolic Activity ([3]; 5 μM, 72 h): 0.299
Cellular Metabolic Activity ([3]; 5 μM, 96 h): 0.595
Cellular Metabolic Activity ([3]; 5 μM, time 0): 0.036
Cellular Metabolic Activity ([3]; 10 μM, 24 h): 0.070
Cellular Metabolic Activity ([3]; 10 μM, 48 h): 0.115
Cellular Metabolic Activity ([3]; 10 μM, 72 h): 0.215
Cellular Metabolic Activity ([3]; 10 μM, 96 h): 0.466
Cellular Metabolic Activity ([3]; 10 μM, time 0): 0.036
Cellular Metabolic Activity ([3]; 20 μM, 24 h): 0.059
Cellular Metabolic Activity ([3]; 20 μM, 48 h): 0.057
Cellular Metabolic Activity ([3]; 20 μM, 72 h): 0.060
Cellular Metabolic Activity ([3]; 20 μM, 96 h): 0.038
Cellular Metabolic Activity ([3]; 20 μM, time 0): 0.040
Cellular Metabolic Activity ([3]; 40 μM, 24 h): 0.038
Cellular Metabolic Activity ([3]; 40 μM, 48 h): 0.026
Cellular Metabolic Activity ([3]; 40 μM, 72 h): 0.014
Cellular Metabolic Activity ([3]; 40 μM, 96 h): 0.00
Cellular Metabolic Activity ([3]; 40 μM, time 0): 0.039
Cellular Metabolic Activity ([3]; 80 μM, 24 h): 0.042
Cellular Metabolic Activity ([3]; 80 μM, 48 h): 0.019
Cellular Metabolic Activity ([3]; 80 μM, 72 h): 0.018
Cellular Metabolic Activity ([3]; 80 μM, 96 h): 0.005
Cellular Metabolic Activity ([3]; 80 μM, time 0): 0.041

O=C(c1ccc(F)cc1)C1CCN(CCn2c(=O)[nH]c3ccccc3c2=O)CC1 [ketanserin, reference compound]
doses resulting in reduction of COX-2 [2]: none of the doses
concentration above which inhibitory effect / significant toxicity (MTT) ([3]; human): above 20 μM

O=C(/C=C/C=C/c1ccc2c(c1)OCO2)N1CCCCC1 [piperine]
doses reducing COX-2 to the greatest extent [2]: 2.5 µM
effect on cell growth / cellular metabolic activity (MTT, words) [3]: could only be studied at very low dose
Cellular Metabolic Activity ([3]; 5 μM, 24 h): 0.077
Cellular Metabolic Activity ([3]; 5 μM, 48 h): 0.170
Cellular Metabolic Activity ([3]; 5 μM, 72 h): 0.278
Cellular Metabolic Activity ([3]; 5 μM, 96 h): 0.517
Cellular Metabolic Activity ([3]; 5 μM, time 0): 0.035
Cellular Metabolic Activity ([3]; 10 μM, 24 h): 0.073
Cellular Metabolic Activity ([3]; 10 μM, 48 h): 0.183
Cellular Metabolic Activity ([3]; 10 μM, 72 h): 0.271
Cellular Metabolic Activity ([3]; 10 μM, 96 h): 0.438
Cellular Metabolic Activity ([3]; 10 μM, time 0): 0.026
Cellular Metabolic Activity ([3]; 20 μM, 24 h): 0.075
Cellular Metabolic Activity ([3]; 20 μM, 48 h): 0.166
Cellular Metabolic Activity ([3]; 20 μM, 72 h): 0.268
Cellular Metabolic Activity ([3]; 20 μM, 96 h): 0.445
Cellular Metabolic Activity ([3]; 20 μM, time 0): 0.022
Cellular Metabolic Activity ([3]; 40 μM, 24 h): 0.069
Cellular Metabolic Activity ([3]; 40 μM, 48 h): 0.169
Cellular Metabolic Activity ([3]; 40 μM, 72 h): 0.226
Cellular Metabolic Activity ([3]; 40 μM, 96 h): 0.423
Cellular Metabolic Activity ([3]; 40 μM, time 0): 0.025
Cellular Metabolic Activity ([3]; 80 μM, 24 h): 0.068
Cellular Metabolic Activity ([3]; 80 μM, 48 h): 0.171
Cellular Metabolic Activity ([3]; 80 μM, 72 h): 0.224
Cellular Metabolic Activity ([3]; 80 μM, 96 h): 0.391
Cellular Metabolic Activity ([3]; 80 μM, time 0): 0.026
Cellular Metabolic Activity ([3]; 100 μM, 24 h): 0.071
Cellular Metabolic Activity ([3]; 100 μM, 48 h): 0.175
Cellular Metabolic Activity ([3]; 100 μM, 72 h): 0.248
Cellular Metabolic Activity ([3]; 100 μM, 96 h): 0.410
Cellular Metabolic Activity ([3]; 100 μM, time 0): 0.030
Cellular Metabolic Activity ([3]; 200 μM, 24 h): 0.071
Cellular Metabolic Activity ([3]; 200 μM, 48 h): 0.171
Cellular Metabolic Activity ([3]; 200 μM, 72 h): 0.243
Cellular Metabolic Activity ([3]; 200 μM, 96 h): 0.426
Cellular Metabolic Activity ([3]; 200 μM, time 0): 0.027
Cellular Metabolic Activity ([3]; 400 μM, 24 h): 0.068
Cellular Metabolic Activity ([3]; 400 μM, 48 h): 0.191
Cellular Metabolic Activity ([3]; 400 μM, 72 h): 0.187
Cellular Metabolic Activity ([3]; 400 μM, 96 h): 0.255
Cellular Metabolic Activity ([3]; 400 μM, time 0): 0.031
